Columns and labels:
[1] = test system: spring barley (HORVS); assay: Postemergence greenhouse trial, % visual injury on spring barley; format: in vivo, Hordeum vulgare; conditions: alone
How it was run: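 Greenhouse crops at second to third true leaf stage sprayed postemergence at 187 L/ha with herbicide (g ae/ha) plus safener (g ai/ha) in acetone/DMSO diluted into 1.5% v/v Agri-dex. Injury scored visually versus solvent-blank controls after 20-22 d, 0 (none) to 100% (complete kill); expected mixture effects by Colby's equation.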

[2] = test system: pigweed (AMARE); assay: Postemergence greenhouse trial, % visual injury on pigweed; format: in vivo, Amaranthus retroflexus; conditions: for % visual injury, observed (Ob): AMARE
How it was run: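 Postemergence greenhouse spray (187 L/ha, 1.5% v/v Agri-dex in water, acetone/DMSO stocks) on plants at second–third true leaf stage, ~23/22 °C, 14 h photoperiod; herbicides in g ae/ha, safener cloquintocet-mexyl in g ai/ha. Visual injury 0–100% versus solvent-blank controls after 20–22 d; Colby's equation gave expected mixture effects.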

[3] = test system: kochia (KCHSC); assay: Postemergence greenhouse trial, % visual injury on kochia; format: in vivo, Kochia scoparia; conditions: Bassia scoparia, post-emergence, alone, read-out: % visual injury, Ob
How it was run: (§1)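 Herbicide rates g ae/ha, safener (cloquintocet-mexyl) rates g ai/ha; spray carrier 1.5% v/v crop oil concentrate, 187 L/ha, 2nd–3rd leaf stage. Rating: visual % injury at 20-22 d.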

[4] = test system: purple deadnettle (LAMPU); assay: Postemergence greenhouse trial, % visual injury on purple deadnettle; format: in vivo, Lamium purpureum; conditions: alone
Method: Seeds of the desired test plant species were planted in Sun Gro MetroMix® 306 planting mixture, which typically has a pH of 6.0 to 6.8 and an organic matter content of about 30 percent, in plastic pots with a surface area of 103.2 square centimeters (cm^2). When required to ensure good germination and healthy plants, a fungicide treatment and/or other chemical or physical treatment was applied. The plants were grown for 7-36 days (d) in a greenhouse with an approximate 14-hour (h) photoperiod which was maintained at about 23° C. during the day and 22° C. during the night. Nutrients and water were added on a regular basis and supplemental lighting was provided with overhead metal halide 1000-Watt lamps as necessary. The plants were employed for testing when they reached the second or third true leaf stage.
Weighed amounts of technical material were dissolved in a volume of 97:3 volume per volume (v/v) acetone/dimethyl sulfoxide (DMSO) to stock solutions. […] The concentrated stock solutions were diluted with an aqueous mixture of 1.5% v/v of Agri-dex crop oil concentrate to provide the appropriate application rates. Compound requirements are based upon a 12 milliliter (mL) application volume at a rate of 187 liters per hectare (L/ha). Stocks solutions of the safeners were prepared following the same procedure. Spray solutions of the safeners and experimental compound mixtures were prepared by adding the stock solutions to the appropriate amount of dilution solution to form a 12 mL spray solution in two-way combinations. Formulated compounds were applied to the plant material with an overhead Mandel track sprayer equipped with 8002E nozzles calibrated to deliver 187 L/ha over an application area of 0.503 square meters (m^2) at a spray height of 18 inches (43 centimeters (cm)) above average plant canopy. Control plants were sprayed in the same manner with the solvent blank. All herbicide application (component a) rates are in g ae/ha and all safener (component b) rates are in g ai/ha.
The treated plants and control plants were placed in a greenhouse as described above and watered by sub-irrigation to prevent wash-off of the test compounds. After 20-22 d, the condition of the test plants as compared with that of the control plants was determined visually and scored on a scale of 0 to 100 percent where 0 corresponds to no injury and 100 corresponds to complete kill. […] Colby's equation was used to determine the herbicidal effects expected from the mixtures. […]

[5] = test system: Russian thistle (SASKR); assay: Postemergence greenhouse trial, % visual injury on Russian thistle; format: in vivo, Salsola kali; conditions: alone
[6] = test system: wild mustard (SINAR); assay: Postemergence greenhouse trial, % visual injury on wild mustard; format: in vivo, Sinapis arvensis; conditions: Brassica, post-emergence, alone, read-out: % visual injury, Ob
How it was run: as §1

[7] = test system: bird's-eye speedwell (VERPE); assay: Postemergence greenhouse trial, % visual injury on bird's-eye speedwell; format: in vivo, Veronica persica; conditions: alone
How it was run: as §1

Nc1c(F)c(-c2ccc3cc[nH]c3c2F)nc(C(=O)O)c1Cl [compound 1]
% visual injury, Ob ([1]; 4.375 g/ha): 13%
% visual injury, Ob ([1]; 8.75 g/ha): 13%
% visual injury, Ob ([1]; 17.5 g/ha): 24%
% visual injury, Ob ([1]; 35 g/ha): 32%
% visual injury, Ob ([1]; 70 g/ha): 41%
% visual injury, observed (Ob) ([2]; compound 1 alone 20 g/ha): 100%
% visual injury, observed (Ob) ([2]; compound 1 alone 40 g/ha): 100%
pest or weed control at 4.375 g/ha ([2]; Amaranthus retroflexus, post-emergence, alone, 4.375 g/ha, read-out: % visual injury, Ob): 81%
pest or weed control at 8.75 g/ha ([2]; Amaranthus retroflexus, post-emergence, alone, 8.75 g/ha, read-out: % visual injury, Ob): 91%
pest or weed control at 17.5 g/ha ([2]; Amaranthus retroflexus, post-emergence, alone, 17.5 g/ha, read-out: % visual injury, Ob): 99%
pest or weed control at 35 g/ha ([2]; Amaranthus retroflexus, post-emergence, alone, 35 g/ha, read-out: % visual injury, Ob): 100%
pest or weed control at 70 g/ha ([2]; Amaranthus retroflexus, post-emergence, alone, 70 g/ha, read-out: % visual injury, Ob): 100%
% visual injury, Δ ([2]; alone, 35 g/ha): 0%
pest or weed control at 4.375 g/ha ([3]; 4.375 g/ha): 67%
pest or weed control at 8.75 g/ha ([3]; 8.75 g/ha): 72%
pest or weed control at 17.5 g/ha ([3]; 17.5 g/ha): 93%
pest or weed control at 35 g/ha ([3]; 35 g/ha): 92%
pest or weed control at 70 g/ha ([3]; 70 g/ha): 97%
% visual injury, Ob ([4]; 4.375 g/ha): 76%
% visual injury, Ob ([4]; 8.75 g/ha): 86%
% visual injury, Ob ([4]; 17.5 g/ha): 90%
% visual injury, Ob ([4]; 35 g/ha): 98%
% visual injury, Ob ([4]; 70 g/ha): 100%
% visual injury, Ob ([5]; 4.375 g/ha): 66%
% visual injury, Ob ([5]; 8.75 g/ha): 70%
% visual injury, Ob ([5]; 17.5 g/ha): 82%
% visual injury, Ob ([5]; 35 g/ha): 90%
% visual injury, Ob ([5]; 70 g/ha): 91%
pest or weed control at 4.375 g/ha ([6]; 4.375 g/ha): 85%
pest or weed control at 8.75 g/ha ([6]; 8.75 g/ha): 88%
pest or weed control at 17.5 g/ha ([6]; 17.5 g/ha): 98%
pest or weed control at 35 g/ha ([6]; 35 g/ha): 99%
pest or weed control at 70 g/ha ([6]; 70 g/ha): 100%
% visual injury, Ob ([7]; 4.375 g/ha): 93%
% visual injury, Ob ([7]; 8.75 g/ha): 95%
% visual injury, Ob ([7]; 17.5 g/ha): 98%
% visual injury, Ob ([7]; 35 g/ha): 99%
% visual injury, Ob ([7]; 70 g/ha): 99%
